Measured values reported in patent US6239171A, “Tocotrienols and tocotrienol-like compounds and methods for their use” (Lipogenics, Inc., priority 1998, dated 2001).

Legend:
chickens = assay: Serum cholesterol, apolipoproteins, triglycerides and glucose in chickens fed supplemented diets; type: in vivo, chicken; details: 4 weeks; for APO A1, percentage of control / APO A1 in serum / APO B in serum / APO B, percentage of control / DL-Cholesterol/Total Cholesterol / DL-Cholesterol/Total Cholesterol, percentage of control / Glucose in serum / Glucose, percentage of control / HDL-Cholesterol in serum / HDL-Cholesterol, percentage of control / HDL-Cholesterol/LDL-Cholesterol / HDL-Cholesterol/LDL-Cholesterol, percentage of control / LDL-Cholesterol in serum / LDL-Cholesterol, percentage of control / Total Cholesterol in serum / Total Cholesterol, percentage of control / Triglycerides in serum / Triglycerides, percentage of control: control diet + 50 ppm
Text: All assays conducted on chicken or swine serum were done following the protocols described in A. A. Qureshi et al., "Lowering Of Serum Cholesterol In Hypercholesterolemic Humans By Tocotrienols" (Palmvitee), Am. J. Clin. Nutr., 53, pp. 1021S-26S (1991). All enzymatic assays were done following the protocols described in A. A. Qureshi et al., "Effects of Cereals and Culture Filtrate of Trichoderma viride on Lipid Metabolism of Swine", Lipids, 17, pp. 924 (1982). Plasma insulin, glucagon and TNF levels were measured using radioinnumoassay kits from Ventrex Laboratories, Inc. (Portland, Me.), ICN Biomedicals, Inc. (Costa Mesa, Calif.) and Genzyme Corp. (Cambridge, Mass.), respectively. […]
Each group of 6 chickens (6-week old female while leghorn) was administered the chick mash diet described in Example 5, supplemented with one of three different amounts of waxes (sterols), 50 ppm of TRF (prepared as in Example 2) or 5% equivalent of the methanol insoluble fraction Louisiana rice bran oil. […] The birds were fasted for a period of 14 hours prior to sacrifice (at 0800 hours). […]

HMG-CoA reductase = target: T1, HMG-CoA reductase (Homo sapiens, UniProt P04035); assay: Hepatic HMG-CoA reductase activity in chickens fed supplemented diets; type: in vivo, chicken; details: 4 weeks; for HMG-CoA Reductase, percentage of control: control diet + 50 ppm
T1 construct: hepatocytes isolated from livers of 8-week old female chickens; endogenous in cells; host or cells: primary chicken hepatocytes
T1 sequence (P04035 1-888): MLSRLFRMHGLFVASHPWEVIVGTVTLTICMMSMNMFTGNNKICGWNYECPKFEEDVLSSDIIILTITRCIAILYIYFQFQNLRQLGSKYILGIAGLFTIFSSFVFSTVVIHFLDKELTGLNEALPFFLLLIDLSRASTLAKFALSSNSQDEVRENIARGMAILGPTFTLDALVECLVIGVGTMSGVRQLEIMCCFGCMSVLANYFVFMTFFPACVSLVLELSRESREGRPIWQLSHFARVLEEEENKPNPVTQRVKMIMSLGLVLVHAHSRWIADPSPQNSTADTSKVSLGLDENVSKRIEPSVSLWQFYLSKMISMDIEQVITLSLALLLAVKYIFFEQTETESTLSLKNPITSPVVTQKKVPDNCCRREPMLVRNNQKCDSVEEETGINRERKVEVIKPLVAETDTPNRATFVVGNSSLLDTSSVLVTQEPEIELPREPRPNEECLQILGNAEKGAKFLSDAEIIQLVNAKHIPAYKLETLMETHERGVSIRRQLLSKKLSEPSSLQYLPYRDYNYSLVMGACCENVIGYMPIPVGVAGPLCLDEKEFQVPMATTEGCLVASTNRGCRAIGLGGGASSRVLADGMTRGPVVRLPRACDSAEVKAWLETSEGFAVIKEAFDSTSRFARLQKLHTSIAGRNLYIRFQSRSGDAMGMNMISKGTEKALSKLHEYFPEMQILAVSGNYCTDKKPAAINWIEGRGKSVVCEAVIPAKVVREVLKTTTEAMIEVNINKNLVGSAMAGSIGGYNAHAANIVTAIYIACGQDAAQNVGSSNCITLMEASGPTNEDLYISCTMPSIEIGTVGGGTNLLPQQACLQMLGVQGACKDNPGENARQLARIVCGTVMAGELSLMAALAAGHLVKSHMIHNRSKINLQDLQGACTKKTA
Method: (§1) This example measured the effects of the TRF and its components on the hepatic enzymatic activity of HMG-CoA reductase and cholesterol 7α-hydroxylase. […] The amount of feed consumed ranged from 11.19-11.60 g per chicken and the feeding period was 4 weeks. The birds were fasted for a period of 36 hours and refed for 48 hours prior to sacrifice (at 0800 hours).

[1] = tested on: cholesterol 7α-hydroxylase; assay: Hepatic cholesterol 7α-hydroxylase activity in chickens fed supplemented diets; type: in vivo, chicken; details: control diet + 50 ppm, 4 weeks
Method: as §1

[2] = tested on: hypercholesterolemic swine; assay: Plasma thromboxane B2 and platelet factor 4 in hypercholesterolemic swine; type: in vivo; parameters: Platelet Factor 4: unit not given here; details: control diet + 50 ppm, 42 days
Text: All assays conducted on chicken or swine serum were done following the protocols described in A. A. Qureshi et al., "Lowering Of Serum Cholesterol In Hypercholesterolemic Humans By Tocotrienols" (Palmvitee), Am. J. Clin. Nutr., 53, pp. 1021S-26S (1991). All enzymatic assays were done following the protocols described in A. A. Qureshi et al., "Effects of Cereals and Culture Filtrate of Trichoderma viride on Lipid Metabolism of Swine", Lipids, 17, pp. 924 (1982). Plasma insulin, glucagon and TNF levels were measured using radioinnumoassay kits from Ventrex Laboratories, Inc. (Portland, Me.), ICN Biomedicals, Inc. (Costa Mesa, Calif.) and Genzyme Corp. (Cambridge, Mass.), respectively.
Each group of three 5-month old swine was administered either a control diet or a control diet supplemented with 50 ppm of TRF or 50 ppm of an individual tocotrienol. The samples were prepared as described in Example 11. After a 12 hour fast, serum and plasma samples were taken a 0 hrs, 21 days and 42 days from the start of the feeding period. After taking serum and plasma samples from the pigs at the end of the 42 day period, all of the swine were fasted for a total of 40 hours, followed by a 48 hour refeeding period. One swine from each group was sacrificed at that time and the liver, intestine, lung, heart, loin muscle, adipose tissue and ham muscle were removed.
This example was conducted to measure the serum levels of apolipoprotein (a)1, apolipoprotein B, triglycerides, glucose, insulin and glucagon and the plasma levels of thromboxane B2 and platelet factor 4 in the swine described in Example 15.

SMILES	APO A1, percentage of control (chickens) [%]	APO A1 in serum (chickens) [mg/100 ml]	APO B in serum (chickens) [mg/100 ml]	APO B, percentage of control (chickens) [%]	DL-Cholesterol/Total Cholesterol (chickens)	DL-Cholesterol/Total Cholesterol, percentage of control (chickens) [%]	Glucose in serum (chickens) [mg/100 ml]	Glucose, percentage of control (chickens) [%]	HDL-Cholesterol in serum (chickens) [mg/dL]	HDL-Cholesterol, percentage of control (chickens) [%]	HDL-Cholesterol/LDL-Cholesterol (chickens)	HDL-Cholesterol/LDL-Cholesterol, percentage of control (chickens) [%]	LDL-Cholesterol in serum (chickens) [mg/dL]	LDL-Cholesterol, percentage of control (chickens) [%]	Total Cholesterol in serum (chickens) [mg/dL]	Total Cholesterol, percentage of control (chickens) [%]	Triglycerides in serum (chickens) [mg/100 ml]	Triglycerides, percentage of control (chickens) [%]	HMG-CoA Reductase, percentage of control (HMG-CoA reductase) [%]	Cholesterol 7α-Hydroxylase, percentage of control [1] [%]	also measured
CC(C)=CCC/C(C)=C/CC/C(C)=C/CCC1(C)CCc2cc(O)ccc2O1 (stereo not shown) [P21, 3,4-dihydro-2-methyl-2-(4,8,12-trimethyltrideca-3' (E),7'(E),11'-trienyl)-2H-1-benzopyran-6-ol]	98.79	138.4	25.40	76.74	0.74	126.50	198.80	88.63	68.88 ± 1.52	82.33	3.11	204.60	22.16 ± 0.57	40.25	92.91 ± 1.27	65.08	56.22	75.94	72.83	112.43	increase in the HDL-/LDL-cholesterol ratio (chickens; 50 ppm in diet): > 100%; rank as cholesterol inhibitor among compounds tested (in words) (chickens; 50 ppm in diet): most potent cholesterol inhibitors; Cholesterol 7α-hydroxylase [1]: 11.49 nmol/min/mg; Platelet Factor 4, percentage of control [2]: 82.59%; Thromboxane B2 [2]: 60.48 pg/100 ml; Thromboxane B2, percentage of control [2]: 87.66%
CC(C)=CCC/C(C)=C/CC/C(C)=C/CCC1CCc2cc(O)ccc2O1 (stereo not shown) [P25, 3,4-dihydro-2-(4,8,12-trimethyltrideca-3'(E),7'(E),11'-trienyl)-2H-1-benzopyran-6-ol]	98.78	138.70	25.20	76.13	0.73	125.30	196.10	87.43	70.12 ± 1.25	53.82	3.05	200.60	23.00 ± 1.27	41.77	95.51 ± 1.11	66.90	54.65	73.82	71.33	111.45	increase in the HDL-/LDL-cholesterol ratio (chickens; 50 ppm in diet): > 100%; rank as cholesterol inhibitor among compounds tested (in words) (chickens; 50 ppm in diet): most potent cholesterol inhibitors; reduction of serum cholesterol (chickens; 50 ppm in diet): ~33%; reduction of enzymatic activity of HMG-CoA reductase (HMG-CoA reductase; 50 ppm in diet): about 28%; Cholesterol 7α-hydroxylase [1]: 11.39 nmol/min/mg; Platelet Factor 4 [2]: 19.15; Platelet Factor 4, percentage of control [2]: 79.36%; Thromboxane B2 [2]: 57.03 pg/100 ml; Thromboxane B2, percentage of control [2]: 83.02%
CC(C)=CCC/C(C)=C/CC/C(C)=C/CCC1(C)CCc2cc(O)c(C)c(C)c2O1 (stereo not shown) [γ-T3, γ-tocotrienol, reference compound]	99.57	139.80	29.53	89.21	0.67	114.50	208.70	93.05	78.39 ± 0.96	93.70	2.09	137.50	37.52 ± 0.81	68.14	116.86 ± 1.47	81.85	61.07	82.49	78.32	107.34	Cholesterol 7α-hydroxylase [1]: 10.97 nmol/min/mg; Platelet Factor 4, percentage of control [2]: 85.28%; Thromboxane B2 [2]: 62.54 pg/100 ml; Thromboxane B2, percentage of control [2]: 92.25%
